Patent US20180186742A1, “PICOLINAMIDES AS FUNGICIDES” (Dow AgroSciences LLC, priority 2017, published 2018)
Like-named read-outs stand apart in the source and are kept apart here.

Experiments:
Type in all cases: in vivo
Zymoseptoria tritici = test: Leaf blotch of wheat (SEPTTR), disease control on wheat seedlings; conditions: for pest or weed control at 121.5 g/ha: low volume application at 121.5 g/H; for pest or weed control at 100 ppm: high volume application at 100 ppm
Method in brief: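 Z. tritici spores were inoculated onto wheat seedlings (Yuma, first leaf emerged) either before or after treatment. Treatment was an automated spray to run-off of acetone/Triton X-100 water solutions, or a track spray of EC formulations with 0.1% Trycol 5941. Plants were held in dew chambers at 20 °C and then a greenhouse at 20 °C. First-leaf severity (0–100%) was converted to percent control against untreated plants.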

Puccinia triticina = test: Wheat brown rust (PUCCRT), disease control on wheat seedlings; conditions: for pest or weed control at 121.5 g/ha: low volume application at 121.5 g/H; for pest or weed control at 100 ppm: high volume application at 100 ppm
Method in brief: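 Compounds in acetone, diluted with nine volumes of water containing 110 ppm Triton X-100, sprayed to run-off on first-leaf Yuma wheat seedlings; track-spray tests used EC formulations with 0.1% Trycol 5941. Puccinia triticina spores applied before or after treatment. Overnight dark dew room at 22° C, 100% humidity, then greenhouse at 24° C.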

Phakopsora pachyrhizi = test: Asian soybean rust (PHAKPA), disease control on soybean seedlings; conditions: High volume application at 25 ppm
Method: Technical grades of materials were dissolved in acetone, which were then mixed with nine volumes of water containing 0.011% Tween 20. The fungicide solutions were applied onto soybean seedlings using an automated booth sprayer to run-off. All sprayed plants were allowed to air dry prior to further handling.
Soybean plants (variety Williams 82) were grown in soil-less Metro mix, with one plant per pot. Two week old seedlings were used for testing. Plants were inoculated either 3 days prior to or 1 day after fungicide treatments. Plants were incubated for 24 h in a dark dew room at 22° C. and 100% relative humidity then transferred to a growth room at 23° C. for disease to develop. Disease severity was assessed on the sprayed leaves.

[1] = 24 h, 1 Day Protectant, read-out: SEPTTR disease control, 1DP, LV activity
[2] = 72 h, 3 Day Curative, read-out: SEPTTR disease control, 3DC, LV activity
[3] = 24 h, 1 Day Protectant, read-out: PUCCRT disease control, 1DP, LV activity
[4] = 72 h, 3 Day Curative, read-out: PUCCRT disease control, 3DC, LV activity
[5] = 24 h, 1 Day Protectant, read-out: PHAKPA 1DP disease control rating
[6] = 72 h, 3 Day Curative, read-out: PHAKPA 3DC disease control rating
[7] = 24 h, 1 Day Protectant, read-out: SEPTTR disease control, 1DP, HV activity
[8] = 72 h, 3 Day Curative, read-out: SEPTTR disease control, 3DC, HV activity
[9] = 24 h, 1 Day Protectant, read-out: PUCCRT disease control, 1DP, HV activity
[10] = 72 h, 3 Day Curative, read-out: PUCCRT disease control, 3DC, HV activity

Row | Compound | pest or weed control at 121.5 g/ha (Zymoseptoria tritici; [1]) [%] | pest or weed control at 121.5 g/ha (Zymoseptoria tritici; [2]) [%] | pest or weed control at 121.5 g/ha (Puccinia triticina; [3]) [%] | pest or weed control at 121.5 g/ha (Puccinia triticina; [4]) [%] | pest or weed control at 25 ppm (Phakopsora pachyrhizi; [5]) [%] | pest or weed control at 25 ppm (Phakopsora pachyrhizi; [6]) [%] | pest or weed control at 100 ppm (Zymoseptoria tritici; [7]) [%] | pest or weed control at 100 ppm (Zymoseptoria tritici; [8]) [%] | pest or weed control at 100 ppm (Puccinia triticina; [9]) [%] | pest or weed control at 100 ppm (Puccinia triticina; [10]) [%]
1 | CCC(C)[C@H](c1ccc(C)cc1C)[C@H](C)OC(=O)[C@H](C)NC(=O)c1nccc(OC)c1OCOC(C)=O (some centres unmarked) [Compound 207] | < 80 | > 80 | > 80 | < 80 | > 80 | < 0 | – | – | – | –
2 | COc1ccnc2c(=O)n([C@@H](C)C(=O)O[C@@H](C)[C@@H](c3ccc(C)cc3C)C(C)C)c(=O)oc12 [Compound 208] | < 0 | < 80 | < 80 | < 80 | < 80 | < 0 | – | – | – | –
3 | COc1ccnc2c(=O)n([C@@H](C)C(=O)O[C@@H](C)[C@@H](c3ccc(C)cc3C)C3CCCC3)c(=O)oc12 [Compound 209] | < 80 | < 80 | < 0 | < 0 | < 80 | < 0 | – | – | – | –
4 | COc1ccnc2c(=O)n([C@@H](C)C(=O)O[C@@H](C)[C@@H](c3ccc(C)cc3C)C3CCCCC3)c(=O)oc12 [Compound 210] | > 80 | < 80 | < 80 | < 0 | < 80 | < 80 | – | – | – | –
5 | COc1cc[n+]([O-])c(C(=O)N[C@@H](C)C(=O)O[C@@H](C)[C@@H](c2ccc(C)cc2C)C(C)C)c1O [Compound 211] | < 80 | < 0 | < 0 | < 0 | < 80 | < 0 | < 80 | < 80 | < 80 | < 0
6 | COc1cc[n+]([O-])c(C(=O)N[C@@H](C)C(=O)O[C@@H](C)[C@@H](c2ccc(C)cc2C)C2CCCC2)c1O [Compound 212] | < 0 | < 0 | < 80 | < 0 | < 80 | < 80 | < 80 | > 80 | > 80 | < 80
7 | CCC(C)[C@H](c1ccc(C)cc1C)[C@H](C)OC(=O)[C@H](C)NC(=O)c1c(O)c(OC)cc[n+]1[O-] (some centres unmarked) [Compound 213] | < 80 | < 80 | < 80 | < 0 | < 0 | < 0 | – | – | – | –
8 | COc1ccnc(C(=O)N[C@@H](C)C(=O)O[C@@H](C)[C@H](c2ccc(F)cc2)C(C)C)c1OC(C)=O [Compound 214] | > 80 | > 80 | > 80 | > 80 | > 80 | < 80 | – | – | – | –
9 | COc1ccnc(C(=O)N[C@@H](C)C(=O)O[C@@H](C)[C@H](c2ccc(F)cc2C)C(C)C)c1OCOC(C)=O [Compound 215] | > 80 | > 80 | > 80 | > 80 | > 80 | > 80 | – | – | – | –
10 | COc1cc(F)ccc1[C@@H](C(C)C)[C@H](C)OC(=O)[C@H](C)NC(=O)c1nccc(OC)c1OC(C)=O [Compound 221] | < 80 | > 80 | < 80 | < 80 | < 80 | < 80 | – | – | – | –
11 | CCC(CC)[C@H](c1ccc(F)cc1OC)[C@H](C)OC(=O)[C@H](C)NC(=O)c1nccc(OC)c1OC(C)=O [Compound 222] | > 80 | > 80 | > 80 | < 80 | > 80 | < 80 | – | – | – | –
